Read-outs that look alike come from different tables or passages of the source.
How the values were obtained:
HBV [1] = settings: Korean Patent Laid-open No. 94-1886; cited from earlier work
[2] = cited from earlier work; for in vivo activities: in words
ICR mouse = experiment: acute toxicity in ICR mouse; type: in vivo
Method: (§1) On the other hand, the acute toxicity of compounds of formulas (I)a, (I)b, (I)c and (I)d is measured using mouse according to the standard of drug toxicity test. The mouse is selected from the 4 weeks old ICR mouse and each dosage of 250 mg/kg, 500 mg/kg, 1,000 mg/kg and 2,000 mg/kg compounds of formulas (I)a, (I)b, (I)c and (I)d are administered after suspending the compounds in the corn oil.

[3] = acute toxicity in ICR mouse; type: in vivo; settings: mouse, in vivo, read-out: Lethal ratio (%)
Method: as §1

[4] = cytotoxicity test, neutral red dye uptake method; type: cell-based; settings: human, 2.2.15 cells, 2.2.15 cell culture, A510, read-out: IC50 (cytotoxicity)
Method: Cytotoxivity test was carried out in order to determine whether the antiviral effect of the compound according to the present invention is due to the general influence on cell growth or not. In the present experiment, neutral red dye uptake method was used. This is a standard method widely utilized for examining cell survival, by which the variety of relations between viruses such as HSV or HIV and host organism can be understood.
Cytotoxicity test was performed on a 96-well tissue culture plate. Cells were cultured and treated with test compounds in the same manner as Biological Example 1, and the experiments at 4-kind concentrations were repeated threetimes, respectively. Since the relative toxicity can be determined form the uptake level of neutral red dye, quantitative analysis was carried out using the absorbance of internalized dye at 510 nm (A510).

liver cells = experiment: liver protection effect in carbon tetrachloride / D-galactosamine model, serum ALT (GPT) or AST in rats, oral for 4 days; type: in vivo; settings: 100 mg/kg, p.o
Method: The efficacy of compounds of formulas (I)a, (I)b, (I)c and (I)d was measured according to the method of carbon tetrachloride model [referred to: Philippe letteron et al., Biochemical Pharmacology, 39, 12, 2027~2034, 1990] and D-galactosamine model [referred to: Koji Hase et al., Biol. Pharm. Bull., 20, 4, 381~385, 1997].
Carbon tetrachloride and D-galactosamine are known as the compounds inducing the severe damage to liver cells, because carbon tetrachloride suppresses the biosysthesis of protein in the liver and induces the necrosis of liver cells, and D-galactosamine also induces the necrosis of liver cells by changing the structure of liver cell membranes.
In the present invention, the compounds of formulas (I)a, (I)b, (I)c and (I)d were orally administered to the rats as experimental animals for 4 days, and then the liver protection effect was examined by measuring the serum ALT or AST values in the experimental animals (referred to: Biol. Prarm. Bull., 20, 4, 38 1~385, 1997; Toxicology and Applied Pharmacology, 95, 1~11, 1988).
Following is calculation formula to evaluate liver protection properties of compounds of formulas (I)a, (I)b, (I)c and (I)d; [formula]
the control group means the group to which carbon tetrachloride or D-galactosamine is administered and the liver cells are impaired;
the normal group means the group to which normal solution is administered.
The liver protection effects of compounds of formulas (I)a, (I)b, (I)c and (I)d are shown to following Table 1 in comparison with known liver protection compound silimarin.

HBV [5] = experiment: inhibitory effect on HBV replication in 2.2.15 cell culture; type: cell-based; settings: for EC50: Hepatitis B virus, 216 h, read-out: ED50 (inhibitory effect on HBV replication); for SI (selectivity Index, IC50/ED50): cytotoxicity IC50 / anti-HBV ED50, 2.2.15 cell
Method: Test for identifying the anti HBV effect of the compound of the present invention was carried out according to a known assay method (see, Korba and Milman, Antiviral Res., 15, 217, 1991). The assay procedure is briefly described in the following.
2.2.15. cell was cultured and preserved in RPM 11640 culture medium containing 5% fetal bovine serum (FBS), 2 mM glutamine and 50 μg/ml gentamicin sulfate. Resistance to G418 of the cell culture and degree of Mycoplasma contamination were examined according to conventional methods.
Cells (1×10^4 /cm^2) were inoculated into a multi-well tissue culture plate, confluently cultured for 7 days, and then kept for 2 or 3 days in confluent condition to stabilize the HBV DNA level. Then, culture medium was replaced 24 hours before cells were exposed to test compound. During the treatment of 9 days, culture medium was replaced and then test compound was added to the fresh culture medium at intervals of 24 hours. Culture medium was collected immediately before the first introduction of test compound, and after 3, 6, 9 days, respectively, and stored at -70° C. before HBV DNA analysis. Then, cytolysis was carried out to analyze the intracellular HBV DNA.
To analyze the extracellular HBV DNA, 0.2 ml of culture medium was incubated in 1M NaOH/10×SSC (1×SSC=0.15M NaCl/0.015M sodium citrate, pH 7.2) for 20 minutes at 25° C. and then immediately applied to a nitrocellulose membrane presoaked in 20×SSC using a slot blot apparatus. The sample was washed twice with 0.5 ml of 1M Tris/2M NaCl (pH 7.2) and once with 0.5 ml of 20×SSC to neutralize, and then it was washed again with 2×SSC and heated at […] for one hour under vacuum. Generally, the cells which have been cultured and preserved in a dish having a diameter of 10 cm are dissolved in 6 ml of lysis buffer, and the […] DNA is prepared according to the method of Korba et al., 1991.
10 μg/lane of cellular DNA sample was digested with restriction enzyme Hind III. Then, the digested sample was applied to 1% agarose gel electrophoresis and transferred to a nitrocellulose membrane.
3.2 kb HBV DNA fragment obtained by EcoR I-digestion and purification was labeled with [^32 P]dCTP using nick translation method. This labeled fragment was used as a hybridization probe. Condition for hybridization and post-washing were controlled by referring to the method of Korba et al., 1991 and HBV nucleic acid content among test sample was determined by Ambis beta scanner. The relative radioactivity of ^32 P hybridized to the test sample was compared with that of ^32 P hybridized to the standard amount of HBV DNA which was applied to each nitrocellulose membrane filter (gel or slot blot). From the calibration curve, the amount of HBV DNA corresponding to the relative cpm value was calculated.
Since the content of intracellular and extracellular HBV DNA has some inherent variations, only inhibition greater than 3.5-fold in the case of HBV virion DNA or 3.0-fold in the case of HBV DNA replication intermediates form the average level of HBV DNA formed in the untreated cell were considered to be statistically significant (P<0.05) in the present experiment. The lever of HBV DNA integrated during each cellular DNA preparation (which remains constant per cell in the present experiment) was used to calculate the level of intracellular HBV DNA formed, thereby the technical variations inherent in the blot hybridization analysis can be eliminated. Typical values for extracellular HBV virion DNA in the untreated cells ranged from 50 to 150 pg/ml culture medium with an average value of about 75 pg/ml. Intracellular HBV DNA replication intermediates (RI) in the untreated cells ranged form 50 to 100 pg/μg cellular DNA with an average value of about 74 pg/μg. […]

[6] = 2.2.15 cell culture, 9 days treatment

| SMILES | HBV replication (HBV [1]) | anti-tumor effect ([2]; Japanese Patent Laid-open No. 80/164625) | in vivo activities [2] | Number of dead animals/Number of administered animals (ICR mouse; 250 mg/kg) | Number of dead animals/Number of administered animals (ICR mouse; 500 mg/kg) | Number of dead animals/Number of administered animals (ICR mouse; 1000 mg/kg) | Number of dead animals/Number of administered animals (ICR mouse; 2000 mg/kg) | mortality ([3]; 250 mg/kg) | mortality ([3]; 500 mg/kg) | mortality ([3]; 1000 mg/kg) | mortality ([3]; 2000 mg/kg) | CC50 at 216 h [4] | Liver protection effect (GPT, %) (liver cells) | EC50 (HBV [5]; [6]) | SI (selectivity Index, IC50/ED50) (HBV [5]) | EC50 (HBV [5]) |
| --- | --- | --- | --- | --- | --- | --- | --- | --- | --- | --- | --- | --- | --- | --- | --- | --- |
| COC(=O)C1=CO[C@@H](O)[C@@H]2C(CO)=CC[C@H]12 [genipin] | inhibit the HBV replication | effective as an anti-tumor agent | liver-protection, inhibition of biosynthesis of RNA and protein, detoxification as well as antiviral activity | – | – | – | – | – | – | – | – | – | – | – | – | – |
| COC(=O)C1=CO[C@H](OCc2ccccc2)[C@H]2[C@@H]1CC1OC(C)(C)OC12CNC(=O)Nc1cccnc1 (stereo partly drawn) [Compound (I)d, methyl (1S,8S,12S)-2-[(3-pyridyl)ureido]methyl-4,4-dimethyl-3,5,11-trioxa-12-benzyloxy-tricyclo[6.4.0.0<2,6>]dodec-9-en-9-carboxylate] | – | – | – | 0/5 | 0/5 | 0/5 | 0/5 | 0% | 0% | 0% | 0% | 70 µM | 74% | 20 µM | 2.5 | – |
| COC(=O)C1=CO[C@@H](OCc2ccccc2)[C@@H]2C(/C=N/OC(C)(C)C)=CC[C@H]12 [Compound (I)c, methyl (1S,5R,6S)-5-benzyloxy-7-(t-buthoxyiminomethyl)-4-oxa-bicyclo [4.3.0]nona-2,7-dien-2-carboxylate] | – | – | – | 0/5 | 0/5 | 0/5 | 0/5 | 0% | 0% | 0% | 0% | 180 µM | 64% | 30 µM | 5.7 | – |
| Nc1ccn([C@H]2CC[C@@H](CO)O2)c(=O)n1 [ddC, dideoxy cytidine, reference compound] | – | – | – | – | – | – | – | – | – | – | – | > 30 µM | – | – | > 2.0 | 15 µM |
| OCC1=C[C@@H](O)[C@@H]2C=CO[C@@H](O[C@@H]3O[C@H](CO)[C@@H](O)[C@H](O)[C@H]3O)[C@H]12 [aucubin] | inhibit the HBV replication | – | liver-protection, inhibition of biosynthesis of RNA and protein, detoxification as well as antiviral activity | – | – | – | – | – | – | – | – | – | – | – | – | – |
| COC(=O)C1=CO[C@@H](OCc2ccccc2)[C@@H]2C(CN=[N+]=[N-])=CC[C@H]12 [Compound (I)a, methyl (7R,3aS,7aS)-1-azidomethyl-7-benzyloxy-3,7,3a,7a-tetrahydro-6-oxaindene-4-carboxylate] | – | – | – | 0/5 | – | 0/5 | 0/5 | 0% | 0% | 0% | 0% | 120 µM | 65% | 80 µM | 4.5 | – |
| COC(=O)C1=CO[C@@H]2O[C@H](OC)[C@@H]3CC[C@H]1[C@H]23 [Compound (I)b, (2S,2aR,4aS,7aR,7bS)-2-methoxy-5-methoxycarbonyl-2a,3,4,4a,7a,7b-hexa-hydro-2H-1,7-dioxacyclopent[c.d]indene] | – | – | – | 0/5 | 0/5 | 0/5 | 0/5 | 0% | 0% | 0% | 0% | 90 µM | 57% | 40 µM | 3.0 | – |

Source: US6262083A, “Genipin derivative having liver protection activity” (priority 1997, dated 2001)
